{"source": "patent US6610698B2", "about": "“Substituted pyrimidine compounds and methods of use” (Amgen, Inc., priority 1996, dated 2003)", "note": "Counter-ions that a name gives are not always drawn."}
{"system": "TNF production by monocytes activated with bacterial lipopolysaccharide (LPS)", "experiment": "Lipopolysaccharide-activated monocyte TNF production assay", "type": "cell-based, human", "details": "Homo sapiens, Monocyte, TNF in supernatant by ELISA, read-out: IC50 values in the monocyte assay (LPS induced TNF release)", "procedure": "(§1) Lipopolysaccharide-activated Monocyte TNF Production Assay\n(§2) Test compounds were evaluated in vitro for the ability to inhibit the production of TNF by monocytes activated with bacterial lipopolysaccharide (LPS). Fresh residual source leukocytes (a byproduct of plateletpheresis) were obtained from a local blood bank, and peripheral blood mononuclear cells (PBMCS) were isolated by density gradient centrifugation on Ficol-Paque Plus (Pharmacia). PBMCs were suspended at 2×10^6/ml in DMEM supplemented to contain 2% FCS, 10 mM, 0.3 mg/ml […], 100 U/ml penicillin G and […] streptomycin sulfate (complete media). Cells were plated into Falcon flat bottom, 96 well culture plates (200 μl/well) and cultured overnight at 37° C. and 6% CO2. Non-adherent cells were removed by washing with 200 μl/well of fresh medium. Wells containing adherent cells (˜70% monocytes) were replenished with 100 μl of fresh medium.\n(§3) Preparation of Test Compound Stock Solutions\n(§4) Test compounds were dissolved in […]. Compound stock solutions were prepared to an initial concentration of […]. Stocks were diluted initially to 20-200 μM in complete media. Nine two-fold serial dilutions of each compound were then prepared in complete medium.\n(§5) Treatment of Cells with Test Compounds and Activation of TNF Production with Lipopolysaccharide\n(§6) One hundred microliters of each test compound dilution were added to microtiter wells containing adherent monocytes and 100 μl complete medium. Monocytes were cultured with test compounds for 60 min at which time 25 μl of complete medium containing 30 ng/ml lipopolysaccharide from E. coli K532 were added to each well. Cells were cultured an additional 4 hrs. Culture supernatants were then removed and TNF presence in the supernatants was quantified using an ELISA.\n(§7) Flat bottom, 96 well Corning High Binding ELISA plates were coated overnight (4° C.) with 150 μL/well of 3 μg/ml murine anti-human TNF-α MAb (R&D Systems #MAB210). Wells were then blocked for 1 hr at room temperature with 200 μL/well of CaCl2-free ELISA buffer supplemented to contain 20 mg/ml BSA (standard ELISA buffer: […], 150 mM NaCl, 2 mM CaCl2, 0.15 mM thimerosal, pH 7.4). Plates were washed and replenished with 100 μl of test supernatants (diluted 1:3) or standards. Standards consisted of eleven 1.5-fold serial dilutions from a stock of 1 ng/ml recombinant human TNF (R&D Systems). Plates were incubated at room temperature for 1 hr on orbital shaker (300 rpm), washed and replenished with 100 μl/well of 0.5 μg/ml goat anti-human TNF-α (R&D systems #AB-210-NA) biotinylated at a 4:1 ratio. Plates were incubated for 40 min, washed and replenished with 100 μl/well of alkaline phosphatase-conjugated streptavidin (Jackson ImmunoResearch #016-050-084) at 0.02 μg/ml. Plates were incubated 30 min, washed and replenished with 200 μl/well of 1 mg/ml of p-nitrophenyl phosphate. After 30 min, plates were read at 405 nm on a Vmax plate reader.\n(§8) Standard curve data were fit to a second order polynomial and unknown TNF-α concentrations determined from their OD by solving this equation for concentration. TNF concentrations were then plotted vs. test compound concentration using a second order polynomial. This equation was then used to calculate the concentration of test compounds causing a 50% reduction in TNF production.", "units": {"IC50": "µM"}}
{"molecule": "Fc1ccc(-c2cnc(Cc3c(Cl)cccc3Cl)nc2-c2ccncc2)cc1", "note": "[Example 1-8, 2-(2,6-Dichlorobenzyl)-5-(4-fluorophenyl)-4-(4-pyridyl)-pyrimidine]", "IC50": "≤ 20"}
{"molecule": "Fc1ccc(-c2cnc(CSc3ccccc3)nc2-c2ccncc2)cc1", "note": "[Example 1-10, 5-(4-Fluorophenyl)-2-phenylthiomethyl-4-(4-pyridinyl)-pyrimidine]", "IC50": "≤ 20"}
{"molecule": "Fc1ccc(-c2cnc(-c3cccs3)nc2-c2ccncc2)cc1", "note": "[Example 1-18, 5-(4-Fluorophenyl)-4-(4-pyridyl)-2-(2-thienyl)-pyrimidine]", "IC50": "≤ 20"}
{"molecule": "CCN(CC)CCNc1ncc(-c2ccc(F)cc2)c(-c2ccncc2)n1", "note": "[Example 1-22, 2-(2-Diethylaminoethylamino)-5-(4-fluorophenyl)-4-(4-pyridyl)-pyrimidine]", "IC50": "≤ 20"}
{"molecule": "Fc1ccc(-c2cnc(Nc3c(Cl)cccc3Cl)nc2-c2ccncc2)cc1", "note": "[Example 1-24, 2-(2,6-Dichlorophenylamino)-5-(4-fluorophenyl)-4-(4-pyridyl)-pyrimidine]", "IC50": "≤ 20"}
{"molecule": "Cc1cccc(C)c1Nc1ncc(-c2ccc(F)cc2)c(-c2ccncc2)n1", "note": "[Example 1-25, 2-(2,6-Dimethylphenylamino)-5-(4-fluorophenyl)-4-(4-pyridyl)-pyrimidine]", "IC50": "≤ 20"}
{"molecule": "Fc1ccc(Nc2ncc(-c3ccc(F)cc3)c(-c3ccncc3)n2)cc1", "note": "[Example 1-27, 5-(4-Fluorophenyl)-2-(4-fluorophenylamino)-4-(4-pyridyl)-pyrimidine]", "IC50": "≤ 20"}
{"molecule": "Fc1ccc(-c2cnc(N3CCOCC3)nc2-c2ccncc2)cc1", "note": "[Example 1-33, 5-(4-Fluorophenyl)-2-morpholino-4-(4-pyridyl)-pyrimidine]", "IC50": "≤ 20"}
{"molecule": "NCCCCNc1ncc(-c2ccc(F)cc2)c(-c2ccncc2)n1", "note": "[Example 2-3, 2-(4-Aminobutylamino)-5-(4-fluorophenyl)-4-(4-pyridyl)-pyrimidine hydrochloride]", "IC50": "≤ 20"}
{"molecule": "Fc1ccc(-c2cnc(NCCc3ccc(Br)cc3)nc2-c2ccncc2)cc1", "note": "[Example 2-10, 2-(2-(4-Bromophenyl)-ethylamino)-5-(4-fluorophenyl)-4-(4-pyridyl)-pyrimidine]", "IC50": "≤ 20"}
{"molecule": "Nc1ccc(CCNc2ncc(-c3ccc(F)cc3)c(-c3ccncc3)n2)cc1", "note": "[Example 2-12, 2-(2-(4-Aminophenyl)-ethylamino)-5-(4-fluorophenyl)-4-(4-pyridyl)-pyrimidine]", "IC50": "≤ 20"}
{"molecule": "COc1ccccc1CCNc1ncc(-c2ccc(F)cc2)c(-c2ccncc2)n1", "note": "[Example 2-15, 5-(4-Fluorophenyl)-2-(2-(2-methoxyphenyl)-ethylamino)-4-(4-pyridyl)-pyrimidine]", "IC50": "≤ 20"}
{"molecule": "COc1cccc(CCNc2ncc(-c3ccc(F)cc3)c(-c3ccncc3)n2)c1", "note": "[Example 2-18, 5-(4-Fluorophenyl)-2-(2-(3-methoxyphenyl)-ethylamino)-4-(4-pyridyl)-pyrimidine]", "IC50": "≤ 20"}
{"molecule": "CC(CCc1ccccc1)Nc1ncc(-c2ccc(F)cc2)c(-c2ccncc2)n1", "note": "(centres unmarked) [Example 2-23, 5-(4-Fluorophenyl)-2-((1-methyl-3-phenylpropyl)-amino)-4-(4-pyridyl)-pyrimidine]", "IC50": "≤ 20"}
{"molecule": "Fc1ccc(-c2cnc(NCCCCc3ccccc3)nc2-c2ccncc2)cc1", "note": "[Example 2-25, 5-(4-Fluorophenyl)-2-((4-phenyl-n-butyl)-amino)-4-(4-pyridyl)-pyrimidine]", "IC50": "≤ 20"}
{"molecule": "Fc1ccc(-c2cnc(NCCN3CCOCC3)nc2-c2ccncc2)cc1", "note": "[Example 2-30, 5-(4-Fluorophenyl)-2-(2-morpholinoethylamino)-4-(4-pyridyl)-pyrimidine]", "IC50": "≤ 20"}
{"molecule": "Fc1ccc(-c2cnc(NCCN3CCCCC3)nc2-c2ccncc2)cc1", "note": "[Example 2-31, 5-(4-Fluorophenyl)-2-(2-piperidinoethylamino)-4-(4-pyridyl)-pyrimidine]", "IC50": "≤ 20"}
{"molecule": "Fc1ccc(-c2cnc(NCCN3CCCC3)nc2-c2ccncc2)cc1", "note": "[Example 2-32, 5-(4-Fluorophenyl)-4-(4-pyridyl)-2-(2-pyrrolidinoethylamino)-pyrimidine]", "IC50": "≤ 20"}
{"molecule": "O=C1CCCN1CCCNc1ncc(-c2ccc(F)cc2)c(-c2ccncc2)n1", "note": "[Example 2-34, 5-(4-Fluorophenyl)-2-(3-(2-pyrrolidinon-1-yl)-propylamino)-4-(4-pyridyl)-pyrimidine]", "IC50": "≤ 20"}
{"molecule": "O=c1[nH]c(Cc2c(Cl)cccc2Cl)nc(-c2ccncc2)c1-c1ccc(F)cc1", "note": "[Example 4-3, 2-(2,6-Dichlorobenzyl)-5-(4-fluorophenyl)-6-(4-pyridyl)-4(3H)-pyrimidinone]", "IC50": "≤ 20"}
{"molecule": "O=c1[nH]c(SCCOc2ccccc2)nc(-c2ccncc2)c1-c1ccc(F)cc1", "note": "[Example 5-3, 5-(4-Fluorophenyl)-2-(2-phenoxyethyl)thio-6-(4-pyridyl)-4(3H)-pyrimidinone]", "IC50": "≤ 20"}
{"molecule": "O=c1[nH]c(SCCNc2ccccc2)nc(-c2ccncc2)c1-c1ccc(F)cc1", "note": "[Example 5-4, 5-(4-Fluorophenyl)-2-(2-phenylaminoethyl)thio-6-(4-pyridyl)-4(3H)-pyrimidinone]", "IC50": "≤ 20"}
{"molecule": "Fc1ccc(-c2cnc(-c3ccncc3)nc2-c2ccncc2)cc1", "note": "[Example 11, 5-(4-Fluorophenyl)-2,4-bis-(4-pyridyl)-pyrimidine]", "IC50": "≤ 20"}
{"system": "TNF production by monocytes activated with bacterial lipopolysaccharide (LPS)", "experiment": "Lipopolysaccharide-activated monocyte TNF production assay", "type": "cell-based, human", "details": "TNF in supernatant by ELISA, listed as 5-(4-Fluorophenyl)-2-(N-methyl-N-(2-phenylethyl)amino)-4-(4-pyridyl)-pyrimidine, read-out: IC50 values in the monocyte assay (LPS induced TNF release)", "procedure": "as §1, §2, §3, §4, §5, §6, §7, §8", "units": {"IC50": "µM"}}
{"molecule": "CN(CCc1ccccc1)c1ncc(-c2ccc(F)cc2)c(-c2ccncc2)n1", "note": "[Example 2-21, 5-(4-Fluorophenyl)-2-(methyl-(2-phenylethyl)-amino)-4-(4-pyridyl)-pyrimidine]", "IC50": "≤ 5"}
{"system": "TNF production by monocytes activated with bacterial lipopolysaccharide (LPS)", "experiment": "Lipopolysaccharide-activated monocyte TNF production assay", "type": "cell-based, human", "details": "TNF in supernatant by ELISA, read-out: IC50 values in the monocyte assay (LPS induced TNF release)", "procedure": "as §1, §2, §3, §4, §5, §6, §7, §8", "units": {"IC50": "µM"}}
{"molecule": "5-(4-Fluorophenyl)-2-((3-imidazolylpropyl)-amino)-4-(4-pyridyl)-pyrimidine [Example 2-24]", "IC50": "≤ 5"}
{"molecule": "Fc1ccc(CCNc2ncc(-c3ccc(F)cc3)c(-c3ccncc3)n2)cc1", "note": "[Example 2-8, 5-(4-Fluorophenyl)-2-(2-(4-fluorophenyl)-ethylamino)-4-(4-pyridyl)-pyrimidine]", "IC50": "≤ 5"}
{"molecule": "Oc1ccc(CCNc2ncc(-c3ccc(F)cc3)c(-c3ccncc3)n2)cc1", "note": "[Example 2-11, 5-(4-Fluorophenyl)-2-(2-(4-hydroxyphenyl)-ethylamino)-4-(4-pyridyl)-pyrimidine]", "IC50": "≤ 5"}
{"molecule": "Fc1ccc(-c2cnc(NCCc3ccccc3F)nc2-c2ccncc2)cc1", "note": "[Example 2-13, 5-(4-Fluorophenyl)-2-(2-(2-fluorophenyl)-ethylamino)-4-(4-pyridyl)-pyrimidine]", "IC50": "≤ 5"}
{"molecule": "OC(CNc1ncc(-c2ccc(F)cc2)c(-c2ccncc2)n1)c1ccccc1", "note": "(centres unmarked) [Example 2-20, 5-(4-Fluorophenyl)-2-((2-hydroxy-2-phenyl)-ethylamino)-4-(4-pyridyl)-pyrimidine]", "IC50": "≤ 5"}
{"molecule": "Fc1ccc(-c2cnc(NCCCc3ccccc3)nc2-c2ccncc2)cc1", "note": "[Example 2-22, 5-(4-Fluorophenyl)-2-((3-phenylpropyl)-amino)-4-(4-pyridyl)-pyrimidine]", "IC50": "≤ 5"}
{"molecule": "O=c1[nH]c(NCCCc2ccccc2)nc(-c2ccncc2)c1-c1ccc(F)cc1", "note": "[Example 6-2, 5-(4-Fluorophenyl)-2-((3-phenylpropyl)-amino)-6-(4-pyridyl)-4(3H)-pyrimidinone]", "IC50": "≤ 5"}
{"molecule": "CC(CCc1ccccc1)Nc1nc(-c2ccncc2)c(-c2ccc(F)cc2)c(=O)[nH]1", "note": "(centres unmarked) [Example 6-3, 5-(4-Fluorophenyl)-2-((1-methyl-3-phenylpropyl)-amino)-6-(4-pyridyl)-4(3H)-pyrimidinone]", "IC50": "≤ 5"}
